Laboratory results published in PMC8011926 (Journal of Medicinal Chemistry, 2020).
Non-standard residues stand in square brackets, D forms with d. Residues, ends and D or L forms follow the SMILES beside them. No end group written: not given here.

B1: [Ala^13]N/OFQ(1–13)-NH2 (peptide)
peptide: FGGFTGARKSARA-NH2
B2: [Ala^10]N/OFQ(1–13)-NH2 (peptide)
peptide: FGGFTGARKAARK-NH2
B3: [Ala^12]N/OFQ(1–13)-NH2 (peptide)
peptide: FGGFTGARKSAAK-NH2
B4: [Ala^6]N/OFQ(1–13)-NH2 (peptide)
peptide: FGGFTAARKSARK-NH2
B5: [Ala^8]N/OFQ(1–13)-NH2 (peptide)
peptide: FGGFTGAAKSARK-NH2
B6: [Ala^2]N/OFQ(1–13)-NH2 (peptide)
peptide: FAGFTGARKSARK-NH2
B7: [Ala^5]N/OFQ(1–13)-NH2 (peptide)
peptide: FGGFAGARKSARK-NH2
B8: [Ala^9]N/OFQ(1–13)-NH2 (peptide)
peptide: FGGFTGARASARK-NH2
B9: [Ala^1]N/OFQ(1–13)-NH2 (peptide)
peptide: AGGFTGARKSARK-NH2
B10: [Ala^3]N/OFQ(1–13)-NH2 (peptide)
peptide: FGAFTGARKSARK-NH2

Columns and labels:
NOP receptor = assay: NOP bias factor, G protein vs β-arrestin 2 (Black–Leff operational model); settings: for BIAS FACTOR: supplementary CSV (molecular formula strings), repeats Tables 1–7 without confidence limits; for bias factor (CL95%), NOP: ΔΔlog(τ/KA) G protein minus β-arrestin 2, N/OFQ(1–13)-NH2 as standard unbiased ligand, positive = toward G protein, mean of at least five experiments
Excerpt: The concentration–response curves of each compound were fitted to the Black–Leff operational model, described by Nagi and Pineyro[70] [drawing 3] where [A] is the agonist concentration, the maximal response of the system is given by Em, n is a fitting parameter for the slope, the affinity of the agonist is represented by the equilibrium dissociation constant of the agonist–receptor complex (KA), and the efficacy of the agonist is defined by τ. τ and KA are descriptive parameters of intrinsic efficacy and binding affinity and may be directly obtained by fitting the experimental data to the operational equation and can be expressed as “transduction coefficients” log(τ/KA). The relative efficiency of agonists producing activation of any pathways can thus be quantified with a “normalized” transduction coefficient, namely Δlog(τ/KA). Finally, the bias factors were calculated as difference between Δlog(τ/KA) values for a given agonist between the pathways (G protein and β-arrestin 2) [drawing 4]
Bias factors are expressed as the mean of at least five independent experiments, and CL95% are indicated. Biased factor is considered to be statistically different from 0 when 0 is not included in CL95%. α values have been statistically analyzed with one-way analysis of variance (ANOVA) followed by the Dunnett post hoc test for multiple comparisons; P values less than 0.05 were considered to be statistically significant.

[1] = molecular target: T1, NOP receptor (NOP-RLuc/Gβ1-RGFP) (Homo sapiens, UniProt P41146); assay: NOP/G protein interaction, BRET assay in membranes; assay type: biochemical; settings: for NOP/G protein pEC50 (CL95%): BRET, membranes (3 μg protein) from HEK293 cells co-expressing NOP-RLuc/Gβ1-RGFP, room temperature, mean of five independent experiments in duplicate, 95% confidence limits; for NOP/G protein α ± sem (intrinsic activity): Emax of ligand / Emax of N/OFQ(1–13)-NH2, mean ± sem of five experiments in duplicate; for NOP/G protein CR (concentration ratio): ratio between EC50 of the ligand and that of the standard agonist N/OFQ(1–13)-NH2
T1 construct: expressed in transfected cells; host or cells: HEK293 (enriched plasma membranes)
T1 sequence (P41146 whole entry): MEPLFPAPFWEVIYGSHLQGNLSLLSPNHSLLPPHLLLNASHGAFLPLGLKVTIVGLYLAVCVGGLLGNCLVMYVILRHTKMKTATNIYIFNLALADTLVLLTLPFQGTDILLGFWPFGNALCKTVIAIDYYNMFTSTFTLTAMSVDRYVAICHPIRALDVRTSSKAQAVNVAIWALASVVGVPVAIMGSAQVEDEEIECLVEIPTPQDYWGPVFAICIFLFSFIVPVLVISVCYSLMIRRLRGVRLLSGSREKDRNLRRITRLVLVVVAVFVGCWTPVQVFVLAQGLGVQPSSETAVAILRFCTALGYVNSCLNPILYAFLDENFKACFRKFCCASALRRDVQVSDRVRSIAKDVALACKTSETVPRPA
Protocol: (§1) For this study, human embryonic kidney (HEK293) cells, permanently co-expressing the different pairs of fusion proteins NOP-RLuc/Gβ1-RGFP and NOP-RLuc/β-arrestin 2-RGFP, and SH-SY5Y cells stably, co-expressing the different pairs of fusion proteins mu-RLuc/Gβ1-RGFP and mu-RLuc/β-arrestin 2-RGFP or delta-RLuc/Gβ1-RGFP and delta-RLuc/β-arrestin 2-RGFP, were used. Cells were prepared and cultured, as described previously.[19],[23] Cells were grown in Dulbecco’s modified Eagle’s medium (DMEM)/HAMS F12 (1:1) supplemented with 10% fetal bovine serum, penicillin G (100 units/mL), streptomycin (100 μg mL^–1), L-glutamine (2 mM), fungizone (1 μg mL^–1), geneticin (G418; 200 μg mL^–1), and hygromycin B (100 μg mL^–1) in a humidified atmosphere of 5% CO2 at 37 °C. For G protein experiments, enriched plasma membrane aliquots from transfected cells were prepared by differential centrifugation; cells were detached with phosphate buffered saline (PBS)/EDTA solution (1 mM, pH 7.4 NaOH), then, after 5 min 500g centrifugation, Dounce-homogenized (30 strokes) in cold homogenization buffer (tris(hydroxymethyl)aminomethane 5 mM, EGTA 1 mM, DTT 1 mM, pH 7.4 HCl) in the presence of sucrose (0.32 M). Three following centrifugations were performed at 10 min 1000g (4 °C), and the supernatants were kept. Two 20 min 24,000g (4 °C) subsequent centrifugations (the second in the absence of sucrose) were performed for separating enriched membranes that, after discarding the supernatant, were kept in ultrapure water at −80 °C.[67] The protein concentration in membrane preparations was determined using the QPRO-BCA kit (Cyanagen Srl, Bologna, IT) and the Ensight (PerkinElmer, Waltham, USA) in the spectrophotometer mode.
(§2) Luminescence in membranes was recorded in 96-well untreated white opaque microplates, while in whole cells, it was recorded in 96-well sterile poly-D-lysine-coated white opaque microplates (PerkinElmer, Waltham, MA, USA) using the luminometer Victor 2030 (PerkinElmer, Waltham, MA, USA). For the determination of receptor/G protein interactions, membranes (3 μg of protein) prepared from cells co-expressing NOP (or mu or delta)/RLuc and Gβ1/RGFP were added to wells in DPBS. For the determination of receptor/β-arrestin 2 interactions, cells co-expressing NOP (or mu or delta)/RLuc and β-arrestin 2/RGFP were plated 24 h before the experiment in poly-D-lysine-treated plates (100,000 cells/well). The cells were prepared for the experiment substituting the medium with PBS with MgCl2 (0.5 mM) and CaCl2 (0.9 mM). Coelenterazine at a final concentration of 5 μM was injected 15 min prior to reading the cell plate. Different concentrations of ligands in 20 μL of PBS–BSA 0.01% were added and incubated 5 min before reading luminescence. […] The BRET ratio was measured 15 min after agonist injection. All experiments were performed at room temperature.
(§3) The pharmacological terminology adopted in this paper is consistent with IUPHAR recommendations.[68] All data are expressed as the mean ± sem of five independent experiments made in duplicate. […] Ligand efficacy was expressed as intrinsic activity (α), calculated as the ratio between the Emax of the ligand and that of the standard agonist. Count per second (CPS) measured for the RGFP and RLuc light emitted using 510(10) and 460(25) filters (PerkinElmer, Waltham, MA), respectively, was used to calculate the BRET ratio. All data are expressed as the stimulated BRET ratio, that is, the ratio between CPS from RGFP and RLuc in the presence of ligands minus the BRET ratio in vehicle-treated wells. […] Concentration–response curves to agonists were fitted to the classical four-parameter logistic nonlinear regression model [drawing 1]
(§4) Curves fitting were performed using PRISM 6.0 (GraphPad Software In., San Diego, USA).

[2] = molecular target: T2, NOP receptor (NOP-RLuc/β-arrestin 2-RGFP) (Homo sapiens, UniProt P41146); assay: NOP/β-arrestin 2 interaction, BRET assay in whole cells; assay type: cell-based; settings: for NOP/β-arrestin 2 pEC50 (CL95%): BRET, whole HEK293 cells co-expressing NOP-RLuc/β-arrestin 2-RGFP, 100,000 cells/well, room temperature, mean of five independent experiments in duplicate, 95% confidence limits; for NOP/β-arrestin 2 α ± sem (intrinsic activity): Emax of ligand / Emax of N/OFQ(1–13)-NH2, mean ± sem of five experiments in duplicate; for NOP/β-arrestin 2 CR (concentration ratio): ratio between EC50 of the ligand and that of the standard agonist N/OFQ(1–13)-NH2
T2 construct: expressed in transfected cells; host or cells: HEK293 (whole cells)
T2 sequence (P41146 whole entry): as above
Protocol: as §1, §2, §3, §4

[3] = molecular target: N/OFQ peptide (NOP) receptor fused to Renilla luciferase (UniProt P41146)
Chain of N/OFQ peptide (NOP) receptor fused to Renilla luciferase (P41146 whole entry, the tested form may be a part): as the sequence (P41146 whole entry) above

Row | Molecule | BIAS FACTOR (NOP receptor) | bias factor (CL95%), NOP (NOP receptor) | NOP/G protein pEC50 (CL95%) [1] | NOP/G protein α ± sem (intrinsic activity) [1] | NOP/G protein CR (concentration ratio) [1] | NOP/β-arrestin 2 pEC50 (CL95%) [2] | NOP/β-arrestin 2 α ± sem (intrinsic activity) [2] | NOP/β-arrestin 2 CR (concentration ratio) [2] | pEC50 for promoting the NOP/G protein interaction (BRET, membranes with NOP-RLuc and Gβ1-RGFP) [3] | pEC50 for promoting the NOP/β-arrestin 2 interaction (BRET, cells with NOP-RLuc and β-arrestin 2-RGFP) [3] | also measured
1 | FGGFTGARKSARA-NH2 [Compound 11, [Ala^13]N/OFQ(1–13)-NH2] | -0.48 | –0.48 (−1.14–0.18) | 7.91 (7.24–8.59) | 0.96 ± 0.06 | 8 | 7.88 (7.75–8.01) | 1.03 ± 0.05 | 2 |  |  | 
2 | C[C@H](NC(=O)CNC(=O)[C@@H](NC(=O)[C@H](Cc1ccccc1)NC(=O)CNC(=O)[C@@H](C)NC(=O)[C@@H](N)Cc1ccccc1)[C@@H](C)O)C(=O)N[C@@H](CCCNC(=N)N)C(=O)N[C@@H](CCCCN)C(=O)N[C@@H](CO)C(=O)N[C@@H](C)C(=O)N[C@@H](CCCNC(=N)N)C(=O)N[C@@H](CCCCN)C(N)=O [Compound 26, [D-Ala^2]N/OFQ(1–13)-NH2] (H-F[dA]GFTGARKSARK-NH2) | 0.20 | 0.20 (−0.26–0.66) | 7.57 (7.28–7.86) | 1.03 ± 0.03 | 13 | 7.16 (6.94–7.34) | 0.95 ± 0.05 | 13 |  |  | less potent than N/OFQ(1–13)-NH2 / reduction of potency, NOP/G protein [1]: approximately 10 fold
3 | [Ala^1]N/OFQ(1–13)-NH2 (AGGFTGARKSARK-NH2) [Compound 1] |  |  | Crc incomplete |  | ∼700 | inactive |  |  |  |  | 
4 | FGGFTGARASARK-NH2 [Compound 8, [Ala^9]N/OFQ(1–13)-NH2] | -0.15 | –0.15 (−0.79–0.49) | 8.14 (6.88–9.41) | 0.97 ± 0.04 | 5 | 7.77 (7.43–8.11) | 1.03 ± 0.07 | 3 |  |  | 
5 | LGGFTGARKSARK-NH2 [Compound 23, [Leu^1]N/OFQ(1–13)-NH2] | -0.08 | –0.08 (−0.53–0.37) | 8.19 (7.88–8.51) | 1.06 ± 0.02 | 3 | 7.87 (7.69–8.04) | 1.04 ± 0.06 | 3 |  |  | 
6 | FGGFTGARKSAAK-NH2 [Compound 10, [Ala^12]N/OFQ(1–13)-NH2] | -0.15 | –0.15 (−0.78–0.49) | 7.31 (6.41–8.22) | 0.91 ± 0.04 | 31 | 6.85 (6.57–7.14) | 0.99 ± 0.05 | 26 |  |  | 
7 | FGGFTGARKAARK-NH2 [Compound 9, [Ala^10]N/OFQ(1–13)-NH2] | -0.08 | –0.08 (−0.67–0.50) | 9.25 (7.82–10.68) | 0.94 ± 0.04 | 0.35 | 8.43 (7.91–8.95) | 1.00 ± 0.04 | 0.68 |  |  | 
8 | [Ala^4]N/OFQ(1–13)-NH2 (FGGATGARKSARK-NH2) [Compound 4] |  |  | Crc incomplete |  | ∼1000 | inactive |  |  |  |  | 
9 | B1 |  |  |  |  |  |  |  |  | 7.91 -log10 M | 7.88 -log10 M | 
10 | B2 |  |  |  |  |  |  |  |  | 9.25 -log10 M | 8.43 -log10 M | 
11 | B3 |  |  |  |  |  |  |  |  | 7.31 -log10 M | 6.85 -log10 M | 
12 | B4 |  |  |  |  |  |  |  |  | 7.66 -log10 M | 7.1 -log10 M | 
13 | B5 |  |  |  |  |  |  |  |  |  |  | concentration ratio (EC50 of the ligand / EC50 of N/OFQ(1–13)-NH2) for promoting the NOP/G protein interaction (BRET, membranes); concentration–response curve incomplete [3]: 1000
14 | B6 |  |  |  |  |  |  |  |  | 6.36 -log10 M |  | 
15 | B7 |  |  |  |  |  |  |  |  | 7.12 -log10 M | 6.13 -log10 M | 
16 | B8 |  |  |  |  |  |  |  |  | 8.14 -log10 M | 7.77 -log10 M | 
17 | B9 |  |  |  |  |  |  |  |  |  |  | concentration ratio (EC50 of the ligand / EC50 of N/OFQ(1–13)-NH2) for promoting the NOP/G protein interaction (BRET, membranes); concentration–response curve incomplete [3]: 700
18 | B10 |  |  |  |  |  |  |  |  | 7.88 -log10 M | 7.54 -log10 M | 
